In assay [1] the target is estrogen receptor-alpha (ERα) (Homo sapiens (Human), UniProt P03372). Briefly: Estrogen receptor-alpha (ERα) degradation assay in MCF7 cells (In-Cell Western / western blot). The class given is cell-based. Conditions: % degraded, read-out: ER Degradation Dmax. Here is the method: 2. Estrogen Receptor-Alpha (ERα) Degradation Assay in MCF-7 Cells Using Western Blot Method for Table 5
The exemplary novel ERα degraders were assessed for their activity in degrading ERα in MCF-7 cells via western blot. The assay was carried out in the presence of 10% FBS or high percentage of human or mouse serum. Protocols of the western blot assay are described below.
MCF7 cells were grown in DMEM/F12 with 10% FBS and seeded at 24,000 cells per well in 100 μl into 96-well clear tissue culture plates. The following day, the cells were treated with PROTACs in a […] concentration curve with 100 nM being the top concentration and serial dilutions to make the other concentrations (30 nM, 10 nM. 3 nM, 1 nM, and 0.3 nM). At all concentrations, 0.01% DMSO is the final concentration in the well. The following day, the plates are aspirated, washed with 50 μl of cold PBS. The cells are lysed with 50 μl/well 4° C. Cell Lysis Buffer (Catalog #9803; Cell Signaling Technology, Danvers, MA) (20 mM Tris-HCL (pH 7.5), 150 mM NaCl, 1 mM Na2EDTA, 1 mM EGTA, 1% Triton, 2.5 mM sodium pyrophosphate, 1 mM B-glycerophosphate, 1 mM sodium vanadate, 1 μg/ml leupeptin). Lysates were clarified at 16,000× g for 10 minutes, and 2 μg of protein was subjected to SDS-PAGE analysis and followed by immunoblotting according to standard protocols. The antibodies used were ERα (Cell Signaling, Technologies Catalog #8644), and Tubulin (Sigma Catalog #T9026; St. Louis, MO). Detection reagents were Clarity Western ECL substrate (Bio-Rad Catalog 4170-5060; Hercules, CA).
Alternatively, MCF7 cells were grown in DMEM/F12 with 10% FBS and seeded at 24,000 cells per well in 500 μl in 24-well clear tissue culture plates. The following day, the cells were treated with PROTACs in a 5-point concentration curve (100 nM, 33 nM, 11 nM, 3.7 nM, and 1.2 nM) in the presence of 0.01% DMSO. After 72 hours, the wells are aspirated and washed with 500 μl of PBS. The cells are lysed with 100 μl/well 4° C. Cell Lysis Buffer (Catalog #9803; Cell Signaling Technology, Danvers, MA) (20 mM Tris-HCL (pH 7.5), 150 mM NaCl, 1 mM Na2EDTA, 1 mM EGTA, 1% Triton, 2.5 mM sodium pyrophosphate, 1 mM B-glycerophosphate, 1 mM sodium vanadate, 1 ug/ml leupeptin). Lysates were clarified at 16,000× g for 10 minutes, and 2 μg of protein was subjected to SDS-PAGE analysis and followed by immunoblotting according to standard protocols. The antibodies used were ERα (Cell Signaling Technologies Catalog #8644), and Tubulin (Sigma Catalog #T9026; St. Louis, MO). Detection reagents were Clarity Western ECL substrate (Bio-Rad Catalog 4170-5060; Hercules, CA).
3. Estrogen receptor-alpha (ERα) degradation assay using In-Cell Western™ Assay for Table 5
Degradation of ERα by claimed compounds were determined in MCF7 cells using an In-Cell Western™ assay. Briefly, MCF7 cells were plated in 96-well plates (2000 cells per well in 100 μl media) and incubated at 37° C. under an atmosphere of 5% CO2 in a humidified incubator overnight. One-hundred (100) μl of media containing test compound (at 2× concentration) was added to the appropriate wells to provide 11 serially decreasing concentrations (top final concentration, 1 μM then 3-fold less for the next 10 concentrations); a vehicle control (DMSO) was also added for each compound. For each experiment, all compounds were assayed in duplicate plates. Cells were then incubated for 3 or 5 days in the above-mentioned environment. The assay was terminated by removal of media, a single wash with ice-cold PBS and the addition of […] paraformaldehyde (PFA: 4% in PBS). After 15 minutes in PFA at room temperature, the cells were permeabilized in Tris-phosphate-buffered saline with Tween (0.1%) (TBST) supplemented with Triton X-100 (0.5%) for 15 minutes. Cells were then blocked in BSA (TBST with BSA, 3%) for one hour. […] The cells were incubated overnight at 4° C. […]
(In general: Immunoblotting shows a protein as a band on a membrane.)

The test system of assay [2] is estrogen receptor. The assay can be described thus: ERE luciferase assay in T47D-KBluc cells. The class given is cell-based. Particulars: Homo sapiens, 24 hours, read-out: ER Target Engagement IC50. The procedure: 1. ERE Luciferase Assay for Compounds in Table 2
T47D-1(Bluc cells (ATCC® ECRL 2 65, T47D human breast cancer cells stably transfected with estrogen responsive element/promoter/luciferase reporter gene) were seeded into 96-well white opaque plates in IR: PM growth medium supplemented with 10% fetal bovine serum (FBS) and allowed to adhere overnight in a 37° C. humidified incubator. The following day, cells were treated with PROTACs in a 12-point concentration curve (top final concentration of 300 nM with subsequent concentrations being 3-fold less with […] being the lowest concentration in the assay). Each PROTAC was tested independently in two experiments on 96-well plates. After 24 hours, media was removed and lysis buffer was added to the wells. Following lysis, Bright-Glo™ Luciferase Assay Substrate (Promega, Madison WI) was added and the luciferase activity was measured using a Cytation 3 plate reader (BioTek™, Winooski, VT). Each compound was assayed in duplicate and the activity was calculated as […] using GraphPad Prism software (San Diego, CA).

Like-named read-outs stand apart in the source and are kept apart here. Where only a bound is given, the exact number is not on record here.

Sequence of estrogen receptor-alpha (ERα) (P03372 whole entry): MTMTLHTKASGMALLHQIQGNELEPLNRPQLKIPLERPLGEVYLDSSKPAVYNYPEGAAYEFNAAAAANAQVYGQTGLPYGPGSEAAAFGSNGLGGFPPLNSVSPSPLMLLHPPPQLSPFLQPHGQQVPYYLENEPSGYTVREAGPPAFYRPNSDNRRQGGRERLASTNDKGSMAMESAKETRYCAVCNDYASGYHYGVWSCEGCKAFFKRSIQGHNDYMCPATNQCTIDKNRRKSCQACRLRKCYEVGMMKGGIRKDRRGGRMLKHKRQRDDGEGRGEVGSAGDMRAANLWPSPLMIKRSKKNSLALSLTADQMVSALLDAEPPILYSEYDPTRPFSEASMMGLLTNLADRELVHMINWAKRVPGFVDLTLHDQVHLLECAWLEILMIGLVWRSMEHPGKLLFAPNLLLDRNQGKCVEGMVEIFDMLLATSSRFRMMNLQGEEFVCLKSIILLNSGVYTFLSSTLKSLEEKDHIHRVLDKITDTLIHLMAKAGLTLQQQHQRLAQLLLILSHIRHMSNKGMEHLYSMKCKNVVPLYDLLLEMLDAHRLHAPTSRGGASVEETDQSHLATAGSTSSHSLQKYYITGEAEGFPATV

Broadly, the Dmax is the largest share of the target that was removed. A word on the IC50: it is the concentration that inhibits the measured activity by half. Regarding `O=C1CCC(n2ncc(Oc3ccc(O[C@H]4CCN(CCOc5ccc([C@H]6c7ccc(O)cc7CC[C@H]6c6ccc(F)cc6)cc5)C4)nc3)cc2=O)C(=O)N1` (mixture of isomers) [PROTAC-93, rac-3-(4-((6-(((R)-1-(2-(4-((1R,2S)-2-(4-fluorophenyl)-6-hydroxy-1,2,3,4-tetrahydronaphthalen-1-yl)phenoxy)ethyl)pyrrolidin-3-yl)oxy)pyridin-3-yl)oxy)-6-oxopyridazin-1(6H)-yl)piperidine-2,6-dione], the Dmax in assay [1] (3 day incubation) is no more than 50%. The IC50 in assay [2] was in the range of 10 to 100 nM.

In the case of `O=C1CCC(n2ncc(Oc3ccc(O[C@H]4CCN(CCOc5ccc([C@@H]6c7ccc(O)cc7CC[C@@H]6c6ccc(F)cc6)cc5)C4)nc3)cc2=O)C(=O)N1` (mixture of isomers) [PROTAC-94, rac-3-(4-((6-(((R)-1-(2-(4-((1S,2R)-2-(4-fluorophenyl)-6-hydroxy-1,2,3,4-tetrahydronaphthalen-1-yl)phenoxy)ethyl)pyrrolidin-3-yl)oxy)pyridin-3-yl)oxy)-6-oxopyridazin-1(6H)-yl)piperidine-2,6-dione], the Dmax in assay [1] (3 day incubation) is no more than 50%. Also, the IC50 in assay [2] was less than 1 nM.

`O=C1CCC(n2ncc(Oc3ccc(O[C@@H]4CCN(CCOc5ccc([C@H]6c7ccc(O)cc7CC[C@H]6c6ccc(F)cc6)cc5)C4)nc3)cc2=O)C(=O)N1` (mixture of isomers) [PROTAC-97, rac-3-(4-((6-(((R)-1-(2-(4-((1S,2R)-2-(4-fluorophenyl)-6-hydroxy-1,2,3,4-tetrahydronaphthalen-1-yl)phenoxy)ethyl)pyrrolidin-3-yl)oxy)pyridin-3-yl)oxy)-6-oxopyridazin-1(6H)-yl)piperidine-2,6-dione]: the Dmax in assay [1] (3 day incubation) was no more than 50%. The IC50 in assay [2] was 10 to 100 nM.

Take `CN(C(=O)c1ccc(N2CCN(CCCCCOc3ccc([C@@H]4c5ccc(O)cc5CC[C@@H]4c4ccccc4)cc3)CC2)cc1)C1CCC(=O)NC1=O` (mixture of isomers) [PROTAC-90, rac-N-(2,6-dioxopiperidin-3-yl)-4-(4-(5-(4-((1R,2S)-6-hydroxy-2-phenyl-1,2,3,4-tetrahydronaphthalen-1-yl)phenoxy)pentyl)piperazin-1-yl)-N-methylbenzamide]: the Dmax in assay [1] (5 day incubation) is greater than 75%. In assay [2], the IC50 is 1 to 10 nM.

`O=C1CCC(NC(=O)c2ccc(N3CCN(CCCCCOc4ccc([C@@H]5c6ccc(O)cc6CC[C@@H]5c5ccccc5)cc4)CC3)cn2)C(=O)N1` (mixture of isomers) [PROTAC-91, rac-N-(2,6-dioxopiperidin-3-yl)-5-(4-(5-(4-((1R,2S)-6-hydroxy-2-phenyl-1,2,3,4-tetrahydronaphthalen-1-yl)phenoxy)pentyl)piperazin-1-yl)picolinamide]: the Dmax in assay [1] (5 day incubation) is greater than 75%. In addition, in assay [2], the IC50 fell in the range of 1 to 10 nM.

For `O=C1CCC(n2ncc(Oc3ccc(N4CCN(CCOc5ccc([C@H]6c7ccc(O)cc7CC[C@H]6c6ccc(F)cc6)cc5)CC4)nc3)cc2=O)C(=O)N1` (mixture of isomers) [PROTAC-95, rac-3-(4-((6-(4-(2-(4-((1R,2S)-2-(4-fluorophenyl)-6-hydroxy-1,2,3,4-tetrahydronaphthalen-1-yl)phenoxy)ethyl)piperazin-1-yl)pyridin-3-yl)oxy)-6-oxopyridazin-1(6H)-yl)piperidine-2,6-dione], in assay [1] (3 day incubation), the Dmax is no more than 50%. Besides, the IC50 in assay [2] was no less than 100 nM.

`O=C1CCC(n2ncc(Oc3ccc(N4CCN(CCOc5ccc([C@@H]6c7ccc(O)cc7CC[C@@H]6c6ccc(F)cc6)cc5)CC4)nc3)cc2=O)C(=O)N1` (mixture of isomers) [PROTAC-96, rac-3-(4-((6-(4-(2-(4-((1R,2S)-2-(4-fluoro-phenyl)-6-hydroxy-1,2,3,4-tetrahydro-naphthalen-1-yl)phenoxy)ethyl)piperazin-1-yl)pyridin-3-yl)oxy)-6-oxopyridazin-1(6H)-yl)piperidine-2,6-dione]: the Dmax in assay [1] (3 day incubation) was no more than 50%. Further, in assay [2], the IC50 was less than 1 nM.

As for `O=C1CCC(n2ncc(Oc3ccc(CCCCOc4ccc([C@@H]5c6ccc(O)cc6CC[C@@H]5c5ccc(F)cc5)cc4)nc3)cc2=O)C(=O)N1` (mixture of isomers) [PROTAC-98, rac-3-(4-((6-(4-(4-((1R,2S)-2-(4-fluorophenyl)-6-hydroxy-1,2,3,4-tetrahydro-naphthalen-1-yl)phenoxy)butyl)pyridin-3-yl)oxy)-6-oxopyridazin-1(6H)-yl)piperidine-2,6-dione], the Dmax in assay [1] (5 day incubation) is no more than 50%. Also, in assay [2], the IC50 fell in the range of 1 to 10 nM.

Turning to `O=C1CCC(n2ncc(Oc3ccc(CCCCCOc4ccc([C@@H]5c6ccc(O)cc6CC[C@@H]5c5ccc(F)cc5)cc4)nc3)cc2=O)C(=O)N1` (mixture of isomers) [PROTAC-99, rac-3-(4-((6-(5-(4-((1R,2S)-2-(4-fluorophenyl)-6-hydroxy-1,2,3,4-tetrahydro-naphthalen-1-yl)phenoxy)pentyl)pyridin-3-yl)oxy)-6-oxopyridazin-1(6H)-yl)piperidine-2,6-dione], the Dmax in assay [1] (5 day incubation) is no more than 50%. In assay [2], the IC50 was 10 to 100 nM.

As for `O=C1CCC(n2ncc(N3CCN(CCCCCOc4ccc([C@@H]5c6ccc(O)cc6CC[C@@H]5c5ccccc5)cc4)CC3)cc2=O)C(=O)N1` (mixture of isomers) [PROTAC-100, rac-3-(4-(4-(5-(4-((1R,2S)-6-hydroxy-2-phenyl-1,2,3,4-tetrahydronaphthalen-1-yl)phenoxy)pentyl)piperazin-1-yl)-6-oxopyridazin-1(6H)-yl)piperidine-2,6-dione], the Dmax in assay [1] (5 day incubation) was in the range of 50 to 75%. Further, the IC50 in assay [2] was in the range of 1 to 10 nM.

Take `O=C1CCC(n2cnc(N3CCN(CCCCCOc4ccc([C@@H]5c6ccc(O)cc6CC[C@@H]5c5ccccc5)cc4)CC3)cc2=O)C(=O)N1` (mixture of isomers) [PROTAC-101, rac-3-(4-(4-(5-(4-((1R,2S)-6-hydroxy-2-phenyl-1,2,3,4-tetrahydronaphthalen-1-yl)phenoxy)pentyl)piperazin-1-yl)-6-oxopyrimidin-1(6H)-yl)piperidine-2,6-dione]: in assay [1] (5 day incubation), the Dmax fell in the range of 50 to 75%. Also, the IC50 in assay [2] was 1 to 10 nM.

`O=C1CCC(n2cc(-c3ccc(N4CCN(CCCOc5ccc([C@@H]6c7ccc(O)cc7CC[C@@H]6c6ccccc6)cc5)CC4)cc3)cn2)C(=O)N1` (mixture of isomers) [PROTAC-110, rac-3-(4-(4-(4-(3-(4-((1R,2S)-6-hydroxy-2-phenyl-1,2,3,4-tetrahydronaphthalen-1-yl)phenoxy)propyl)piperazin-1-yl)phenyl)-1H-pyrazol-1-yl) piperidine-2,6-dione]: the Dmax in assay [1] (5 day incubation) lay within 50 to 75%. The IC50 in assay [2] is less than 1 nM.
